Data taken from patent publication US11116771B2, “G protein-coupled receptor (GPCR) modulation by imipridones” (Oncoceutics, Inc., priority 2016, dated 2021).
Converted amounts (≈) assume the structure as drawn. “Also recorded” adds a separate entry of the source. Where two headings read alike, the source gives them in different places.

Assays:
[1] = test system: Staphylococcus aureus ATCC 33591; test: MIC by micro-broth dilution, S. aureus ATCC 33591; assay type: cell-based
[2] = test system: Staphylococcus aureus ATCC 700699; test: MIC by micro-broth dilution, S. aureus ATCC 700699; assay type: cell-based
human cancer cells = test: Viability of human cancer cells at 72 hours post-treatment; assay type: cell-based; settings: for Relative Potency*: relative to the potency of ONC201, viability of human cancer cells at 72 hours post-treatment
[3] = test system: NCI60 cancer cell line panel; test: NCI60 cancer cell line panel; assay type: cell-based; settings: NCI60 panel (FIG. 16)
[4] = test system: Staphylococcus aureus ATCC 29213; test: MIC by micro-broth dilution, S. aureus ATCC 29213; assay type: cell-based
HCT116 cells = test: Anticancer efficacy in HCT116 cells; assay type: cell-based, human; settings: HCT116 cells
GPR132 = molecular target: T1, GPR132 (Homo sapiens, UniProt Q9UNW8); test: β-arrestin recruitment GPCR reporter assay, GPR132; assay type: cell-based
T1 sequence (Q9UNW8 1-380): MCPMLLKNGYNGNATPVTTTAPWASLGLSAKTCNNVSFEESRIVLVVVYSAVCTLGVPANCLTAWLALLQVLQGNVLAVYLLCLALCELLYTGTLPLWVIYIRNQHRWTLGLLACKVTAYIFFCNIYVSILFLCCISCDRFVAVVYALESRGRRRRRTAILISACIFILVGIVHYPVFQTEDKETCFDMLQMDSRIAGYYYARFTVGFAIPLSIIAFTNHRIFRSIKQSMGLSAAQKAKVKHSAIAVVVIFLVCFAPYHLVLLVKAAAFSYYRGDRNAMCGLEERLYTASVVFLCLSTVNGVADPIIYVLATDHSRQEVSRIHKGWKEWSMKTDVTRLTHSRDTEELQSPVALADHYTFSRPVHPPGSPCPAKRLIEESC

DRD5 = DRD5 (Homo sapiens, UniProt P21918); test: β-arrestin recruitment GPCR reporter assay, DRD5; assay type: cell-based; settings: arrestin recruitment reporter assay
[5] = Staphylococcus aureus, ATCC29213, 24 h
[6] = Staphylococcus aureus, ATCC33591, 24 h
[7] = Staphylococcus aureus, ATCC700699, 48 h

Chain of DRD5 (P21918 whole entry): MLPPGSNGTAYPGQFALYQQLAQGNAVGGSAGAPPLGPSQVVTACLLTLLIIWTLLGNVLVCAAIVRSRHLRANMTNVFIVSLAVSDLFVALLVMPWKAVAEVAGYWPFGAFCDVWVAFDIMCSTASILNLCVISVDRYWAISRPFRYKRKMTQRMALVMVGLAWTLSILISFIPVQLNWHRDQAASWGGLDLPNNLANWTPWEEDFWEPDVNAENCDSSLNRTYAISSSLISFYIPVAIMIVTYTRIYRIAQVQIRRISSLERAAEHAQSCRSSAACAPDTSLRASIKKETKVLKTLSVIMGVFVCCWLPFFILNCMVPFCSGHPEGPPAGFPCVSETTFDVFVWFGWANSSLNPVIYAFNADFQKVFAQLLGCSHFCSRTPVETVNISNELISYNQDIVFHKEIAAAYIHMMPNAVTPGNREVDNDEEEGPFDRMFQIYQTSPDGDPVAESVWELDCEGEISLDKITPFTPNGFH

SMILES: COc1cccc(OC)c1C(=O)N[C@@H]1C(=O)N2[C@@H]1SC(C)(C)[C@@H]2C(=O)O [Methicillin, reference compound]
- MIC ([1]; ATCC33591, Staphylococcus aureus (ATCC 33591), methicillin resistant, read-out: MIC): > 100 µg/mL
- MIC90 ([1]; Staphylococcus aureus, ATCC33591, ATCC 33591, 24 hours, read-out: MIC90): > 100 µg/mL
- MIC ([1]; Staphylococcus aureus, ATCC33591, ATCC 33591, 24 hours, read-out: MIC95): > 100 µg/mL
- MIC99 ([1]; Staphylococcus aureus, ATCC33591, ATCC 33591, 24 hours, read-out: MIC99): > 100 µg/mL
- MIC ([1]; Staphylococcus aureus, ATCC33591, ATCC 33591, 24 hours, read-out: MIC, Visual): > 100 µg/mL
- MIC ([2]; ATCC700699, MDR Staphylococcus aureus (ATCC 700699), read-out: MIC): > 100 µg/mL
- MIC90 ([2]; Staphylococcus aureus, ATCC700699, ATCC 700699 (48 hours), read-out: MIC90): > 100 µg/mL
- MIC ([2]; Staphylococcus aureus, ATCC700699, ATCC 700699 (48 hours), read-out: MIC95): > 100 µg/mL
- MIC99 ([2]; Staphylococcus aureus, ATCC700699, ATCC 700699 (48 hours), read-out: MIC99): > 100 µg/mL
- MIC ([2]; Staphylococcus aureus, ATCC700699, ATCC 700699 (48 hours), read-out: MIC, Visual): > 100 µg/mL

SMILES: O=C1C2=C(CCN(Cc3ccccc3)C2)N2CCN=C2N1Cc1cccs1 [ONC203]
- Relative Potency* (human cancer cells): C (C Indicates a potency decrease of >2-fold of ONC201)
- anti-cancer efficacy across tumor types [3]: inactive negative control

SMILES: O=C1C2=C(CCN(Cc3ccccc3)C2)N2CCN=C2N1CCc1ccccc1 [ONC204]
- Relative Potency* (human cancer cells): C (C Indicates a potency decrease of >2-fold of ONC201)

SMILES: O=C1C2=C(CCN(Cc3ccccc3)C2)N2CCN=C2N1CCN1CCN(Cc2ccccc2)CC1 [ONC205]
- Relative Potency* (human cancer cells): C (C Indicates a potency decrease of >2-fold of ONC201)

SMILES: Cc1ccccc1CN1C(=O)C2=C(CCNC2)N2CCN=C12 [ONC207]
- Relative Potency* (human cancer cells): B (B Indicates potency that is within 2-fold of ONC201)
- MIC95 ([4]; ATCC 29213, 24 hours): >100 µg/mL
- MIC99 ([4]; ATCC 29213, 24 hours): >100 µg/mL
- MIC, Visual ([4]; ATCC 29213, 24 hours): >100 µg/mL
- MIC90 ([1]; ATCC 33591, 24 hours): >100 µg/mL
- MIC95 ([1]; ATCC 33591, 24 hours): >100 µg/mL
- MIC99 ([1]; ATCC 33591, 24 hours): >100 µg/mL
- MIC, Visual ([1]; ATCC 33591, 24 hours): >100 µg/mL
- MIC90 ([2]; ATCC 700699 (48 hours)): >100 µg/mL
- MIC95 ([2]; ATCC 700699 (48 hours)): >100 µg/mL
- MIC99 ([2]; ATCC 700699 (48 hours)): >100 µg/mL
- MIC, Visual ([2]; ATCC 700699 (48 hours)): >100 µg/mL

SMILES: Cc1ccccc1CN1C(=O)C2=C(CCN(C)C2)N2CCN=C12 [ONC208]
- Relative Potency* (human cancer cells): B (B Indicates potency that is within 2-fold of ONC201)

SMILES: Cc1ccccc1CN1C(=O)C2=C(CCN(CCc3ccccc3)C2)N2CCN=C12 [ONC209]
- Relative Potency* (human cancer cells): B (B Indicates potency that is within 2-fold of ONC201)

SMILES: O=C1C2=C(CCN(Cc3ccccc3)C2)N2CCN=C2N1Cc1cc(F)cc(F)c1 [ONC210]
- Relative Potency* (human cancer cells): B (B Indicates potency that is within 2-fold of ONC201)

SMILES: O=C1C2=C(CCN(Cc3ccccc3)C2)N2CCN=C2N1Cc1ccc(Cl)c(Cl)c1 [ONC211]
- Relative Potency* (human cancer cells): B (B Indicates potency that is within 2-fold of ONC201)

SMILES: Cc1ccccc1CN1C(=O)C2=C(CCN(CCCN)C2)N2CCN=C12 [ONC216]
- Relative Potency* (human cancer cells): B (B Indicates potency that is within 2-fold of ONC201)

SMILES: O=C1C2=C(CCN(Cc3ccccc3)C2)N2CCN=C2N1Cc1ccccc1F [ONC217]
- Relative Potency* (human cancer cells): C (C Indicates a potency decrease of >2-fold of ONC201)

SMILES: Cc1cc(F)ccc1CN1C(=O)C2=C(CCN(Cc3ccccc3)C2)N2CCN=C12 [ONC218]
- Relative Potency* (human cancer cells): A (A Indicates a potency increase of >2-fold of ONC201)

SMILES: O=C1C2=C(CCN(Cc3ccccc3)C2)N2CCN=C2N1Cc1ccc(Cl)cc1Cl [ONC219]
- Relative Potency* (human cancer cells): A (A Indicates a potency increase of >2-fold of ONC201)

SMILES: COc1ccc(CN2C(=O)C3=C(CCN(Cc4ccccc4)C3)N3CCN=C23)cc1 [ONC220]
- Relative Potency* (human cancer cells): A (A Indicates a potency increase of >2-fold of ONC201)

SMILES: O=C1C2=C(CCNC2)N2CCN=C2N1Cc1ccc(C(F)(F)F)cc1 [ONC221]
- Relative Potency* (human cancer cells): A (A Indicates a potency increase of >2-fold of ONC201)

SMILES: O=C1C2=C(CCN(Cc3ccccc3)C2)N2CCN=C2N1CC1CCON1 (stereo not shown) [ONC222]
- Relative Potency* (human cancer cells): C (C Indicates a potency decrease of >2-fold of ONC201)

SMILES: Cc1ccc(CN2C(=O)C3=C(CCN(Cc4ccccc4)C3)N3CCN=C23)cc1 [ONC223]
- Relative Potency* (human cancer cells): A (A Indicates a potency increase of >2-fold of ONC201)

SMILES: O=C1C2=C(CCN(Cc3ccccc3)C2)N2CCN=C2N1CCN1CCOCC1 [ONC224]
- Relative Potency* (human cancer cells): A (A Indicates a potency increase of >2-fold of ONC201)

SMILES: O=C1C2=C(CCN(Cc3ccccc3)C2)N2CCN=C2N1Cc1ccc(C(F)(F)F)cc1F [ONC225]
- Relative Potency* (human cancer cells): A (A Indicates a potency increase of >2-fold of ONC201)

SMILES: O=C1C2=C(CCN(Cc3ccccc3)C2)N2CCN=C2N1Cc1cccnc1 [ONC226]
- Relative Potency* (human cancer cells): A (A Indicates a potency increase of >2-fold of ONC201)

SMILES: O=C1C2=C(CCN(Cc3ccc(C(F)(F)F)cc3)C2)N2CCN=C2N1Cc1ccc(C(F)(F)F)cc1 [ONC227]
- Relative Potency* (human cancer cells): B (B Indicates potency that is within 2-fold of ONC201)

SMILES: O=C1C2=C(CCN(Cc3ccc(F)cc3)C2)N2CCN=C2N1Cc1ccc(C(F)(F)F)cc1 [ONC228]
- Relative Potency* (human cancer cells): A (A Indicates a potency increase of >2-fold of ONC201)

SMILES: COc1ccc(CN2CCC3=C(C2)C(=O)N(Cc2ccc(C(F)(F)F)cc2)C2=NCCN23)cc1 [ONC229]
- Relative Potency* (human cancer cells): B (B Indicates potency that is within 2-fold of ONC201)

SMILES: O=C(CCCN1CCC2=C(C1)C(=O)N(Cc1ccc(C(F)(F)F)cc1)C1=NCCN12)c1ccc(F)cc1 [ONC230]
- Relative Potency* (human cancer cells): A (A Indicates a potency increase of >2-fold of ONC201)

SMILES: O=C1C2=C(CCN(Cc3cccnc3)C2)N2CCN=C2N1Cc1ccc(C(F)(F)F)cc1 [ONC231]
- Relative Potency* (human cancer cells): A (A Indicates a potency increase of >2-fold of ONC201)

SMILES: Cc1csc(CN2CCC3=C(C2)C(=O)N(Cc2ccc(C(F)(F)F)cc2)C2=NCCN23)n1 [ONC232]
- Relative Potency* (human cancer cells): B (B Indicates potency that is within 2-fold of ONC201)

SMILES: O=C1C2=C(CCN(Cc3cnccn3)C2)N2CCN=C2N1Cc1ccc(C(F)(F)F)cc1 [ONC233]
- Relative Potency* (human cancer cells): B (B Indicates potency that is within 2-fold of ONC201)

SMILES: O=C1C2=C(CCN(Cc3ccsc3)C2)N2CCN=C2N1Cc1ccc(C(F)(F)F)cc1 [ONC236]
- Relative Potency* (human cancer cells): A (A Indicates a potency increase of >2-fold of ONC201)
- completeness of response (HCT116 cells): better than ONC201 but not ONC212; also recorded: same as ONC212, and better than ONC201
- GPCR activity, GPR132 (GPR132): highly selective GPR132 agonist

SMILES: O=C1C2=C(CCN(CC(O)c3ccccc3)C2)N2CCN=C2N1Cc1ccc(C(F)(F)F)cc1 (stereo not shown) [ONC237]
- IC50 (human cancer cells; Homo sapiens, cell line not stated, read-out: anticancer efficacy IC50): 31.2 µM
- Relative Potency* (human cancer cells): C (C Indicates a potency decrease of >2-fold of ONC201)
- GPCR activity, DRD5 (DRD5): DRD5 antagonist
- GPCR activity, GPR132 (GPR132): GPR132 agonist

SMILES: CN[C@H](CC(C)C)C(=O)N[C@H]1C(=O)N[C@@H](CC(N)=O)C(=O)N[C@H]2C(=O)N[C@H]3C(=O)N[C@H](C(=O)N[C@H](C(=O)O)c4cc(O)cc(O)c4-c4cc3ccc4O)[C@H](O)c3ccc(c(Cl)c3)Oc3cc2cc(c3O[C@@H]2O[C@H](CO)[C@@H](O)[C@H](O)[C@H]2O[C@H]2C[C@](C)(N)[C@H](O)[C@H](C)O2)Oc2ccc(cc2Cl)[C@H]1O [Vancomycin, reference compound]
- MIC90 [4, 5]: 3.13 µg/mL (≈ 2.16 µM)
- MIC99 [4, 5]: 6.25 µg/mL (≈ 4.31 µM)
- MIC ([4]; Staphylococcus aureus, ATCC29213, 24 h, read-out: MIC95): 3.13 µg/mL (≈ 2.16 µM)
- MIC ([4]; Staphylococcus aureus, ATCC29213, 24 h, read-out: MIC, Visual): 3.12 µg/mL (≈ 2.16 µM)
- MIC90 [1, 6]: 0.39 µg/mL (≈ 0.269 µM)
- MIC99 [1, 6]: 0.78 µg/mL (≈ 0.538 µM)
- MIC ([1]; Staphylococcus aureus, ATCC33591, 24 h, read-out: MIC95): 0.39 µg/mL (≈ 0.269 µM)
- MIC ([1]; Staphylococcus aureus, ATCC33591, 24 h, read-out: MIC, Visual): 0.391 µg/mL (≈ 0.27 µM)
- MIC90 [2, 7]: 12.5 µg/mL (≈ 8.63 µM)
- MIC99 [2, 7]: 25 µg/mL (≈ 17.3 µM)
- MIC ([2]; Staphylococcus aureus, ATCC700699, 48 h, read-out: MIC95): 25 µg/mL (≈ 17.3 µM)
- MIC ([2]; Staphylococcus aureus, ATCC700699, 48 h, read-out: MIC, Visual): 25 µg/mL (≈ 17.3 µM)
